Experimental data from the supplement of paper PMC11923942.

Legend:
[1] = collision cross section (N2, base ion); higher = larger ion cross section
Experimental: (§1)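 Standards of hydrophobic organic contaminants were analysed by GC-APCI (positive mode, dry or wet source conditions) coupled to cyclic ion mobility-QTOF MS. CCS was measured for the base ion (sometimes a fragment ion) in N2 drift gas (one-pass mode, calibrated with a Waters 22-compound mix).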

[2] = GC retention time (DB-5MS, GC-APCI); higher = later elution
Experimental: as §1, with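 “mix). 5 mL/min).” for “mix).”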

Compound	collision cross section [1]	GC retention time [2]
Clc1ccc(Cl)c(Cl)c1Cl [1,2,3,4-Tetrachlorobenzene] (APCI source condition: Dry, base ion: M+.)	135.67 Å²	9.99 min
Brc1cc(Br)c(OCCOc2c(Br)cc(Br)cc2Br)c(Br)c1 [1,2-Bis(2,4,6-tribromophenoxy)ethane] (APCI source condition: Dry, base ion: M+.)	186.57 Å²	29 min
C=CCOc1c(Br)cc(Br)cc1Br [1,3,5-Tribromo-2-prop-2-enoxybenzene] (APCI source condition: Dry, base ion: [M-Br]+)	136.27 Å²	15.2 min
CCCCCCCCCCCCCCCCC(F)(F)C(F)(F)C(F)(F)C(F)(F)C(F)(F)C(F)(F)C(F)(F)C(F)(F)C(F)(F)C(F)(F)F [1-(Henicosafluorodecyl)hexadecane] (APCI source condition: Dry, base ion: [M-H]+)	241.65 Å²	17.6 min
CCCCCCCCCCCCCCCCC(F)(F)C(F)(F)C(F)(F)C(F)(F)C(F)(F)C(F)(F)C(F)(F)C(F)(F)F [1-(Perfluoro-n-octyl)hexadecane] (APCI source condition: Dry, base ion: [M-H]+)	226.94 Å²	16.8 min
CCCCCCCCCCCCCCC=CC(F)(F)C(F)(F)C(F)(F)C(F)(F)C(F)(F)C(F)(F)C(F)(F)C(F)(F)C(F)(F)C(F)(F)C(F)(F)C(F)(F)F [1-(Perfluorododecyl)-hexadec-1-ene] (APCI source condition: Dry, base ion: [M-H]+)	255.25 Å²	18 min
CCCCCCCCCCCCCCCCC(F)(F)C(F)(F)C(F)(F)C(F)(F)C(F)(F)C(F)(F)C(F)(F)C(F)(F)C(F)(F)C(F)(F)C(F)(F)C(F)(F)F [1-(Perfluorododecyl)hexadecane] (APCI source condition: Dry, base ion: [M-H]+)	256.66 Å²	18.4 min
CCCCCCCCCCCCCCC(F)(F)C(F)(F)C(F)(F)C(F)(F)C(F)(F)C(F)(F)C(F)(F)C(F)(F)C(F)(F)C(F)(F)C(F)(F)C(F)(F)F [1-(Perfluorododecyl)tetradecane] (APCI source condition: Dry, base ion: [M-H]+)	250.16 Å²	16.7 min
Clc1ccc(C(c2ccccc2Cl)C(Cl)Cl)cc1 (centres undefined) [2,4'-DDD] (APCI source condition: Dry, base ion: [M-CHCl2]+)	140.45 Å²	19.4 min
ClC(Cl)=C(c1ccc(Cl)cc1)c1ccccc1Cl [2,4'-DDE] (APCI source condition: Dry, base ion: M+.)	154.54 Å²	18.7 min
Clc1ccc(C(c2ccccc2Cl)C(Cl)(Cl)Cl)cc1 (centres undefined) [2,4'-DDT] (APCI source condition: Dry, base ion: [M-CCl3]+)	140.36 Å²	20.2 min
C=C(Br)COc1c(Br)cc(Br)cc1Br [2-Bromoallyl 2,4,6-tribromophenyl ether] (APCI source condition: Dry, base ion: [M-Br]+)	143.35 Å²	18.2 min
CCCCC(CC)COP(=O)(Oc1ccccc1)Oc1ccccc1 (centres undefined) [2-Ethylhexyl diphenyl phosphate] (APCI source condition: Wet, base ion: [M-C8H15]+)	149.25 Å²	21.3 min
CCCCC(CC)COC(=O)c1cc(Br)c(Br)c(Br)c1Br (centres undefined) [2-Ethylhexyl-2,3,4,5-tetrabromobenzoate] (APCI source condition: Dry, base ion: C7H3Br4O2+)	141.48 Å²	24.2 min
Clc1ccc(C(c2ccc(Cl)cc2)C(Cl)Cl)cc1 [4,4'-DDD] (APCI source condition: Dry, base ion: [M-CHCl2]+)	142.2 Å²	20.1 min
ClC(Cl)=C(c1ccc(Cl)cc1)c1ccc(Cl)cc1 [4,4'-DDE] (APCI source condition: Dry, base ion: M+.)	159.06 Å²	19.3 min
Clc1ccc(C(c2ccc(Cl)cc2)C(Cl)(Cl)Cl)cc1 [4,4'-DDT] (APCI source condition: Dry, base ion: [M-CCl3]+)	140.31 Å²	20.8 min
c1ccc2cc3ccccc3cc2c1 [Anthracene] (APCI source condition: Dry, base ion: M+.)	138 Å²	15.7 min
c1ccc2cc3c(ccc4ccccc43)cc2c1 [Benzo(a)anthracene] (APCI source condition: Dry, base ion: M+.)	140.47 Å²	21.8 min
c1ccc2c(c1)cc1ccc3cccc4ccc2c1c34 [Benzo(a)pyrene] (APCI source condition: Dry, base ion: M+.)	143.28 Å²	24.8 min

Compound	collision cross section [1]	GC retention time [2]
c1ccc2c(c1)-c1cccc3c1c-2cc1ccccc13 [Benzo(b)fluoranthene] (APCI source condition: Dry, base ion: M+.)	145.46 Å²	24.2 min
c1ccc2c(c1)ccc1ccc3ccccc3c12 [Benzo(c)phenanthrene] (APCI source condition: Dry, base ion: M+.)	140.99 Å²	21.3 min
c1ccc2c(c1)c1cccc3ccc4cccc2c4c31 [Benzo(e)pyrene] (APCI source condition: Dry, base ion: M+.)	142.88 Å²	24.7 min
c1cc2ccc3ccc4ccc5cccc6c(c1)c2c3c4c56 [Benzo(g,h,i)perylene] (APCI source condition: Dry, base ion: M+.)	150.71 Å²	27.1 min
c1ccc2cc3c(cc2c1)-c1cccc2cccc-3c12 [Benzo(k)fluoranthene] (APCI source condition: Dry, base ion: M+.)	145.45 Å²	24.2 min
CCCCC(CC)COC(=O)c1c(Br)c(Br)c(Br)c(Br)c1C(=O)OCC(CC)CCCC (centres undefined) [Bis(2-ethylhexyl) tetrabromophthalate] (APCI source condition: Dry, base ion: C8HBr4O3+)	141.58 Å²	30.1 min
c1ccc2c(c1)ccc1c3ccccc3ccc21 [Chrysene] (APCI source condition: Dry, base ion: M+.)	141.28 Å²	21.9 min
c1ccc2c(c1)ccc1cc3c(ccc4ccccc43)cc12 [Dibenzo(a,h)anthracene] (APCI source condition: Dry, base ion: M+.)	154.91 Å²	27.2 min
c1ccc2c(c1)sc1ccccc12 [Dibenzothiophene] (APCI source condition: Dry, base ion: M+.)	137.55 Å²	15.2 min
ClC1=C(Cl)[C@]2(Cl)[C@@H]3[C@@H]4C[C@@H]([C@H]5O[C@@H]45)[C@@H]3[C@@]1(Cl)C2(Cl)Cl [Dieldrin] (APCI source condition: Dry, base ion: M+.)	151.16 Å²	19.8 min
ClC1=C(Cl)C2(Cl)C3C4CC(C5OC45)C3C1(Cl)C2(Cl)Cl (centres undefined) [Endrin] (APCI source condition: Wet, base ion: [M+H]+)	157.95 Å²	19.4 min
c1ccc2c(c1)-c1cccc3cccc-2c13 [Fluoranthene] (APCI source condition: Dry, base ion: M+.)	138.02 Å²	18.4 min
ClC1=C(Cl)C2(Cl)[C@H]3[C@@H]4O[C@@H]4[C@H](Cl)[C@H]3C1(Cl)C2(Cl)Cl (stereo partly drawn) [Heptachlor-exo-epoxide] (APCI source condition: Dry, base ion: [M-H]+)	151.86 Å²	18.2 min
ClC1=C(Cl)C2(Cl)C3C(Cl)C=CC3C1(Cl)C2(Cl)Cl (centres undefined) [Heptachlor] (APCI source condition: Dry, base ion: [M-H]+)	157.41 Å²	16.7 min
Brc1c(Br)c(Br)c(Br)c(Br)c1Br [Hexabromobenzene] (APCI source condition: Dry, base ion: M+.)	135.29 Å²	21.8 min
Clc1c(Cl)c(Cl)c(Cl)c(Cl)c1Cl [Hexachlorobenzene] (APCI source condition: Dry, base ion: M+.)	135.29 Å²	14.6 min
ClC1CCCC(Br)(Br)C(Cl)(C2=CCCC2)C(Cl)(Cl)C1(Cl)Cl (centres undefined) [Hexachlorocyclopentenyl-dibromocyclooctane] (APCI source condition: Dry, base ion: [M-CH4Cl2Br]+)	152.06 Å²	24.4 min
c1ccc2c(c1)-c1ccc3ccc4cccc5cc-2c1c3c45 [Indeno(1,2,3-cd)pyrene] (APCI source condition: Dry, base ion: M+.)	148.24 Å²	27.7 min
ClC1=C(Cl)[C@]2(Cl)[C@H]3[C@H]([C@H]4C=C[C@@H]3C4)[C@@]1(Cl)C2(Cl)Cl [Isodrin] (APCI source condition: Dry, base ion: M+.)	150.98 Å²	18 min
Clc1c(Cl)c(Cl)c(-c2c(Cl)c(Cl)c(Cl)c(Cl)c2Cl)c(Cl)c1Cl [PCB 209] (APCI source condition: Dry, base ion: M+.)	179.93 Å²	
